Laboratory results published in US7238701B2, “Substituted tetrahydrobenzothienopyrimidinamine compounds useful for treating hyper-proliferative disorders” (Bayer Pharmaceuticals Corporation, priority 2003, dated 2007).

Assays:
[1] = tested on: A431cells (human epidermoid carcinoma); experiment: In vitro tumor cell proliferation assay (Cell Titer-Glo luminescent cell viability), A431 cells; assay type: cell-based; conditions: A-431, 72 h, 72 hours drug exposure, 10% Fetal Bovine Serum, ATP luminescence readout, read-out: IC50 (50% inhibition of cell proliferation)
Excerpt: (§1) In vitro Tumor Cell Proliferation Assay
(§2) The tumor cell proliferation assay used to test the compounds of the present invention involves a readout called Cell Titer-Glow® Luminescent Cell Viability Assay developed by Promega (Cunningham, B A “A Growing Issue: Cell Proliferation Assays, Modern kits ease quantification of cell growth” The Scientist 2001, 15(13), 26, and Crouch, S P et al., “The use of ATP bioluminescence as a measure of cell proliferation and cytotoxicity” Journal of Immunological Methods 1993, 160, 81–88), that measures inhibition of cell proliferation. Generation of a luminescent signal corresponds to the amount of ATP present, which is directly proportional to the number of metabolically active (proliferating) cells.
(§3) A431cells (human epidermoid carcinoma, ATCC # HTB-20) and BT474 (human breast carcinoma, ATCC # CRL-1555) were plated at a density of 2.5×10^3 cells/well in 96 well black-clear bottom tissue culture plates in RPMI media with 10% Fetal Bovine Serum and incubated at 37° C. Twenty-four hours later, test compounds are added at a final concentration range from as high 100 μM to as low 64 pM depend on the activities of the tested compounds in serial dilutions at a final DMSO concentration of 0.1%. Cells were incubated for 72 hours at 37° C. in complete growth media after addition of the test compound. After 72 hours of drug exposure, the plates were equilibrated to room temperature for approximately 30 min. Then, using a Promega Cell Titer Glo Luminescent® assay kit, lysis buffer containing 100 microliters of the enzyme luciferase and its substrate, luciferin mixture, was added to each well. The plates were mixed for 2 min on orbital shaker to ensure cell lysis and incubated for 10 min at room temperature to stabilize luminescence signal. The samples were read on VICTOR 2 using Luminescence protocol, and analyzed with Analyze5 software to generate IC50 values.

[2] = tested on: BT474 (human breast carcinoma); experiment: In vitro tumor cell proliferation assay (Cell Titer-Glo luminescent cell viability), BT474 cells; assay type: cell-based; conditions: BT-474, 72 hours drug exposure, 10% Fetal Bovine Serum, ATP luminescence readout, read-out: IC50 (50% inhibition of cell proliferation)
Excerpt: as §1, §2, §3

Compound | IC50 [1] [µM] | IC50 [2] [µM]
CCOC(=O)C1CCc2c(sc3ncnc(Nc4cccc(O)c4)c23)C1 (stereo not drawn) [Example 40, Ethyl 4-[(3-hydroxyphenyl)amino]-5,6,7,8-tetrahydro[1]benzothieno[2,3-d]pyrimidine-7-carboxylate] | < 50 | < 50
CN1CCN(CCC2CCc3c(sc4ncnc(Nc5cccc(Br)c5)c34)C2)CC1 (stereo not drawn) [Example 80, N-(3-bromophenyl)-7-[2-(4-methyl-1-piperazinyl)ethyl]-5,6,7,8-tetrahydro[1]benzothieno[2,3-d]pyrimidin-4-amine] | < 5 | < 5
COCCN(C)C(=O)CC1CCc2c(sc3ncnc(Nc4cccc(Br)c4)c23)C1 (stereo not drawn) [Example 83, 2-{4-[(3-bromophenyl)amino]-5,6,7,8-tetrahydro[1]benzothieno[2,3-d]pyrimidin-7-yl}-N-(2-methoxyethyl)-N-methylacetamide] | < 5 | < 50
O=C(O)CC1CCc2c(sc3ncnc(Nc4ccc(F)c(Cl)c4)c23)C1 (stereo not drawn) [Example 72] | < 5 | < 50
OCCC1CCc2c(sc3ncnc(Nc4cccc(Br)c4)c23)C1 (stereo not drawn) [Example 102, 2-{4-[(3-bromophenyl)amino]-5,6,7,8-tetrahydro[1]benzothieno[2,3-d]pyrimidin-7-yl}ethanol] | < 50 | < 50
O=C(CC1CCc2c(sc3ncnc(Nc4cccc(Br)c4)c23)C1)NCCN1CCOCC1 (stereo not drawn) [Example 69] | < 50 | < 50
CN(C)[C@@H]1CCN(C(=O)CC2CCc3c(sc4ncnc(Nc5cccc(Br)c5)c34)C2)C1 (stereo partly drawn) [Example 92, N-(3-bromophenyl)-7-{2-[(3R)-3-(dimethylamino)-1-pyrrolidinyl]-2-oxoethyl}-5,6,7,8-tetrahydro[1]benzothieno[2,3-d]pyrimidin-4-amine] | < 5 | < 5
CS(=O)(=O)CCNCC1CCc2c(sc3ncnc(Nc4ccc(F)c(Cl)c4)c23)C1 (stereo not drawn) [Example 55, N-(3-chloro-4-fluorophenyl)-7-({[2-(methylsulfonyl)ethyl]amino}methyl)-5,6,7,8-tetrahydro[1]benzothieno[2,3-d]pyrimidin-4-amine] | < 5 | < 50
COCCN(C)C(=O)C1CCc2c(sc3ncnc(Nc4cccc(Br)c4)c23)C1 (stereo not drawn) [Example 31, 4-[(3-bromophenyl)amino]-N-(2-methoxyethyl)-N-methyl-5,6,7,8-tetrahydro[1]benzothieno[2,3-d]pyrimidine-7-carboxamide] | < 50 | < 50
Fc1ccc(Nc2ncnc3sc4c(c23)CCC(CCN2CCCC2)C4)cc1Cl (stereo not drawn) [Example 74, N-(3-chloro-4-fluorophenyl)-7-[2-(1-pyrrolidinyl)ethyl]-5,6,7,8-tetrahydro[1]benzothieno[2,3-d]pyrimidin-4-amine] | < 5 | < 5
O=C(CC1CCc2c(sc3ncnc(Nc4cccc(Br)c4)c23)C1)N1CCCC1 (stereo not drawn) [Example 81, N-(3-bromophenyl)-7-[2-oxo-2-(1-pyrrolidinyl)ethyl]-5,6,7,8-tetrahydro[1]benzothieno[2,3-d]pyrimidin-4-amine] | < 50 | < 50
N#Cc1ccc(N2CCN(C(=O)C3CCc4c(sc5ncnc(Nc6cccc(Br)c6)c45)C3)CC2)cc1 (stereo not drawn) [Example 48, 4-[4-({4-[(3-bromophenyl)amino]-5,6,7,8-tetrahydro[1]benzothieno[2,3-d]pyrimidin-7-yl}carbonyl)-1-piperazinyl]benzonitrile] | < 50 | < 5

Continued, values first:

IC50 [1] [µM] | IC50 [2] [µM] | Compound
< 50 | < 5 | CN1CCN(CCC2CCc3c(sc4ncnc(Nc5ccc6c(cnn6Cc6ccccc6)c5)c34)C2)CC1 (stereo not drawn) [Example 227, N-(1-benzyl-1H-indazol-5-yl)-7-[2-(4-methylpiperazin-1-yl)ethyl]-5,6,7,8-tetrahydro[1]benzothieno[2,3-d]pyrimidin-4-amine]
< 5 | < 5 | CN(C)[C@@H]1CCN(CCC2CCc3c(sc4ncnc(Nc5ccc(OCc6cccc(F)c6)c(Cl)c5)c34)C2)C1 (stereo partly drawn) [Example 160]
< 5 | < 5 | CN(C)C1CCN(CCC2CCc3c(sc4ncnc(Nc5ccc6c(cnn6Cc6ccccc6)c5)c34)C2)C1 (stereo not drawn) [Example 207, N-(1-benzyl-1H-indazol-5-yl)-7-{2-[3-(dimethylamino)pyrrolidin-1-yl]ethyl}-5,6,7,8-tetrahydro[1]benzothieno[2,3-d]pyrimidin-4-amine]
< 5 | < 5 | O[C@@H]1CCN(CCC2CCc3c(sc4ncnc(Nc5ccc(OCc6cccc(F)c6)c(Cl)c5)c34)C2)C1 (stereo partly drawn) [Example 197, (3R)-1-{2-[4-({3-chloro-4-[(3-fluorobenzyl)oxy]phenyl}amino)-5,6,7,8-tetrahydro[1]benzothieno[2,3-d]pyrimidin-7-yl]ethyl}pyrrolidin-3-ol]
< 5 | < 5 | OCCN(CCO)CCC1CCc2c(sc3ncnc(Nc4ccc(OCc5ccccn5)c(Cl)c4)c23)C1 (stereo not drawn) [Example 179, 2,2′-{[2-(4-{[3-chloro-4-(pyridin-2-ylmethoxy)phenyl]amino}-5,6,7,8-tetrahydro[1]benzothieno[2,3-d]pyrimidin-7-yl)ethyl]imino}diethanol]
< 50 | < 5 | Cc1ccc(Oc2ccc(Nc3ncnc4sc5c(c34)CCC(CCN3C(C)CCC3C)C5)cc2C)cn1 (stereo not drawn) [Example 235]
< 5 | < 5 | CNCCC1CCc2c(sc3ncnc(Nc4ccc(OCc5cccc(F)c5)c(Cl)c4)c23)C1 (stereo not drawn) [Example 169, N-{3-chloro-4-[(3-fluorobenzyl)oxy]phenyl}-7-[2-(methylamino)ethyl]-5,6,7,8-tetrahydro[1]benzothieno[2,3-d]pyrimidin-4-amine]
< 5 | < 5 | CN1CCN(C(=O)CC2CCc3c(sc4ncnc(Nc5ccc(Br)cc5F)c34)C2)CC1 (stereo not drawn) [Example 105, N-(4-bromo-2-fluorophenyl)-7-[2-(4-methyl-1-piperazinyl)-2-oxoethyl]-5,6,7,8-tetrahydro[1]benzothieno[2,3-d]pyrimidin-4-amine]
< 50 | < 5 | OCCC1CCc2c(sc3ncnc(Nc4ccc(OCc5ccccn5)c(Cl)c4)c23)C1 (stereo not drawn) [Example 174, 2-{4-[3-Chloro-4-(pyridin-2-ylmethoxy)-phenylamino]-5,6,7,8-tetrahydro-benzo[4,5]thieno[2,3-d]pyrimidin-7-yl}-ethanol]
< 50 | < 5 | OCCC1CCc2c(sc3ncnc(Nc4ccc(OCc5cccc(F)c5)c(Cl)c4)c23)C1 (stereo not drawn) [Example 137, 2-{4-[3-Chloro-4-(3-fluoro-benzyloxy)-phenylamino]-5,6,7,8-tetrahydro-benzo[4,5]thieno[2,3-d]pyrimidin-7-yl}-ethanol]
< 50 | < 5 | Cc1ccc(Oc2ccc(Nc3ncnc4sc5c(c34)CCC(CCN(C)C)C5)cc2C)cn1 (stereo not drawn) [Example 226]
< 5 | < 5 | CN(C)[C@H]1CCN(C(=O)CC2CCc3c(sc4ncnc(Nc5ccc(OCc6ccc(F)cc6)c(Cl)c5)c34)C2)C1 (stereo partly drawn) [Example 148, N-{3-chloro-4-[(4-fluorobenzyl)oxy]phenyl}-7-{2-[(3S)-3-(dimethylamino)pyrrolidin-1-yl]-2-oxoethyl}-5,6,7,8-tetrahydro[1]benzothieno[2,3-d]pyrimidin-4-amine]
